Values quoted from earlier work as cited in patent US10792481B2, “Implantable drug delivery device” (Nano Precision Medical, Inc., priority 2014, dated 2020).

Conditions: 37° C., 0.2 atmosphere partial pressure

O=O [oxygen]
solubility of oxygen in water: about 7 mg/liter
